What was measured:
SARS-CoV-2 3CL-protease = SARS-CoV-2 3CL-protease (Severe acute respiratory syndrome coronavirus 2 (2019-nCoV) (SARS-CoV-2), UniProt P0DTD1); experiment: SARS-CoV-2 3C-like (3CL) protease fluorescence assay (FRET); assay type: biochemical; conditions: recombinant SARS-CoV-2 3CL-protease 10 nM, 30 min preincubation, substrate 40 μM, duplicate
norovirus = conditions: phase II randomized double-blind trial, patients; cited from earlier work
[1] = tested on: 229E human coronavirus (hCoV); experiment: microbe, parasite or virus in culture; assay type: cell-based; conditions: unidentified human coronavirus, MRC5, 144 h; MRC-5 cells, MOI 0.05, 6 days at 34° C., ATPlite, duplicate

Compound	IC50 (SARS-CoV-2 3CL-protease) [nM]	reduction of gastroenteritis symptoms (norovirus) [h]	EC50 [1] [nM]
CCOC(=O)/C=C/[C@@H]1C[C@@]2(CN1C(=O)[C@@H](CC(=O)[C@@H](NC(=O)c1cc(C)on1)C(C)C)Cc1ccc(F)cc1)C(=O)Nc1ccccc12 [Example 6]	> 1000	–	–
CC(=O)Oc1ccccc1C(=O)Nc1ncc([N+](=O)[O-])s1 [NTZ, nitazoxanide]	–	24	–
CC(C)[C@H](NC(=O)OC(C)(C)C)C(=O)C[C@@H](Cc1ccc(F)cc1)C(=O)N1C[C@]2(C[C@H]1C#N)C(=O)Nc1ccccc12 [Example 26]	< 100	–	–
CC(C)[C@H](NC(=O)C(F)(F)F)C(=O)CC(Cc1ccc(F)cc1)C(=O)N1C[C@]2(C[C@H]1C#N)C(=O)Nc1ccccc12 (some centres unmarked) [Example 2]	100 to 1000	–	> 1000
CC(C)CC(CC(=O)[C@@H](NC(=O)OCc1ccccc1)C(C)C)C(=O)N1C[C@]2(C[C@H]1C#N)C(=O)Nc1ccccc12 (some centres unmarked) [Example 3]	> 1000	–	> 1000
CC(C)[C@H](NC(=O)OCc1ccccc1)C(=O)CC(Cc1ccc(F)cc1)C(=O)N1C[C@]2(C[C@H]1C#N)C(=O)Nc1ccccc12 (some centres unmarked) [Example 1]	100 to 1000	–	> 1000
CCOC(=O)/C=C/[C@@H]1C[C@@]2(CN1C(=O)[C@@H](CC(=O)[C@@H](NC(=O)OC(C)(C)C)C(C)C)Cc1ccc(F)cc1)C(=O)Nc1ccccc12 [Example 25]	> 1000	–	–
Cc1cc(C(=O)N[C@H](C(=O)C[C@@H](Cc2ccc(F)cc2)C(=O)N2C[C@]3(C[C@H]2C#N)C(=O)Nc2ccccc23)C(C)C)no1 [Example 5]	< 100	–	–
